Results reported in US20040220224A1, “Method of treating irritable bowel syndrome” (Pfizer Inc, priority 2003, published 2004).

Tested on: female BALB/c or CD-1 mice
Test: Intestinal motility model in mice (gastrointestinal transit of red dye)
Type: in vivo
Conditions: mice fasted 24 h, red dye 1 h after treatment, measured 20 min later
Method: Intestinal Motility Model:
An intestinal motility model in mice may be used to evaluate of antimuscarinic compounds of formulae I-V as potential treatment for irritable bowel syndrome. In the studies, female BALB/c or CD-1 mice are fasted for 24 hours and then treated orally with one or more compounds of formulae I-V or vehicle. One hour after of treatment, the mice receive a red dye mixture via gastric gavage. Twenty minutes later, the animals are euthanized and the small intestine is removed. Gastrointestinal transit (GIT) is calculated using the measured length of the small intestine from the pyloric sphincter to the ileocecal junction and the distance traveled by the red dye front. Percent inhibition is indicated above bars.

For `Cc1ccc(O)c([C@H](CC[N+](C)(C(C)C)C(C)C)c2ccccc2)c1` [Example 3, (3R)-3-(2-Hydroxy-5-methylphenyl)-N,N-diisopropyl-N-methyl-3-phenylpropan-1-aminium bromide], the “inhibition of gastrointestinal transit (GIT)” value (“inhibition” for short) (oral dose 10 mg/kg) was 17%, the “inhibition” value (oral dose 30 mg/kg) was 29% and the “inhibition” value (oral dose 60 mg/kg) was 28%.
`C[N+]1(CCc2ccc3c(c2)CCO3)CC[C@@H](C(C(N)=O)(c2ccccc2)c2ccccc2)C1.[I-]` (stereo partly drawn) [Example 27, (3S)-3-(2-amino-2-oxo-1,1-diphenylethyl)-1-[2-(2,3-dihydro-1-benzofuran-5-yl)ethyl]-1-methylpyrrolidinium iodide] was tested, and the “inhibition” value (oral dose 10 mg/kg) was 13%, the “inhibition” value (oral dose 30 mg/kg) was 20% and the “inhibition” value (oral dose 60 mg/kg) was 30%.
`NC(=O)C(c1ccccc1)(c1ccccc1)[C@@H]1CCN(CCc2ccc3c(c2)CCO3)C1` [reference compound] was tested, and the “inhibition” value (oral dose 30 mg/kg) was “about 15%” and the “inhibition” value (oral dose 60 mg/kg) was “about 15%”.
